The source made the active and inactive calls.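 Rule for the calls: active = compounds whose fitted half-maximal concentration in the cell-protection dose series is at or below a set limit; inactive = the rest.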
system: H9c2 cardiomyocytes, 2-deoxyglucose stress, ATP luminescence, 2 h; assay: H9c2 cell survival under 2-deoxyglucose stress – uHTS hits, dose response (AID 588780)

Compound | IC50
COC(=O)c1ccccc1NC(=O)c1ccc2nccnc2c1 | > 79 µM (inactive)
CC(=O)Nc1cccc(-c2cc(NC=O)c3ncc(-c4cccc(C(C)=O)c4)n3c2)c1 | > 79 µM (inactive)
COc1ccc(N=Cc2cc(Cl)ccc2O)cc1Cl | > 79 µM (inactive)
O=C(COC(=O)Cc1n[nH]c(=O)c2ccccc12)Nc1ccc(Cl)cc1F | > 79 µM (inactive)
COc1cc(-c2cc(C(=O)OCC(=O)NC3CC3)c3ccccc3n2)cc(OC)c1OC | 10.7 µM
COc1cccc(/C=N/NC(=O)c2[nH]c(C)c(C(=O)N/N=C/c3cccc(OC)c3)c2C)c1 | 11.9 µM
CCN(CC)C(=O)c1ccc(-c2nnc(Nc3ccc(O)cc3)c3ccccc23)cc1 | 71.4 µM (inactive)
Cc1ccc(S(=O)(=O)N2CCOCC2)cc1C(=O)Nc1nc(-c2ccccn2)cs1 | 9.58 µM
CNS(=O)(=O)c1cc2c3c(cccc3c1)C(=O)NC2=O | > 79 µM (inactive)
O=C1OCCN1C(=O)[C@H]1[C@H](c2ccc([N+](=O)[O-])cc2)C(c2ccccc2)=NN1c1ccc(Br)cc1 | > 79 µM (inactive)
O=C(CN1CCN(c2ccccc2F)CC1)c1ccc(O)c(O)c1 | > 79 µM (inactive)
CSc1nc(Cl)c(Br)c(N2CC2)n1 | > 79 µM (inactive)
O=C(N/N=C\c1ccccn1)C1COc2cc3ccccc3cc2O1 (stereo not given) | 8.87 µM
Cc1cc(O)c(C=Nc2ccc(N3CCOCC3)cc2)c(C)c1Cl | > 79 µM (inactive)
Cc1cnc(NC(=O)CSc2nc3ccccc3c(=O)[nH]2)s1 | > 79 µM (inactive)
COc1ccc(OC)c(NC(=O)COC(=O)c2c3c(nc4ccccc24)CCCC3)c1 | > 79 µM (inactive)
CCOC(=O)Cc1n[nH]c(=O)c2ccccc12 | > 79 µM (inactive)
CCOC(=O)c1c(C)nc2sc3c(=O)n(-c4ccc(C(C)=O)cc4)cnc3c2c1-c1ccc(OC)cc1 | > 79 µM (inactive)
O=C(CNC(=O)c1cccc(F)c1)N/N=C/c1cc(Br)ccc1OC(=O)/C=C/c1ccco1 | > 79 µM (inactive)
O=C(CN1CCN(S(=O)(=O)c2cc(Cl)ccc2Cl)CC1)c1ccc(O)c(O)c1 | > 79 µM (inactive)
Cn1c2ccccc2c(=O)c2ccc(NCc3ccc4c(c3)OCO4)cc21 | 8.06 µM
O=C(CCCSc1nc2sc3c(c2c(=O)[nH]1)CCC3)NCCO | > 79 µM (inactive)
CCn1ncc2c1C(=O)NC1c3ccccc3C(=O)N21 (stereo not given) | > 79 µM (inactive)
COc1cc(Nc2nc3ccccc3n3nnnc23)cc(OC)c1OC | > 79 µM (inactive)

Compound | IC50
Cc1ccccc1OCC(=O)NNC(=O)Cn1[nH]c(=O)c2ccccc2c1=O | > 79 µM (inactive)
Cc1nn(C)cc1C(C(=O)NC1CCCCC1)N(C(=O)Cc1cccs1)c1ccc(Cl)cc1 (stereo not given) | 27.5 µM
CCCNC(=O)c1c(N)n(-c2cccc(OC)c2)c2nc3ccccc3nc12 | > 79 µM (inactive)
CN1CCC(N(C)C(=O)CCc2nc3ccccc3c(=O)[nH]2)CC1 | > 79 µM (inactive)
O=C(CCc1nc2ccccc2c(=O)[nH]1)OCc1nnc(-c2ccccc2)o1 | > 79 µM (inactive)
COc1ccc(NC(=O)N(C)C[C@H]2Oc3c(NC(=O)Nc4ccc(C(F)(F)F)cc4)cccc3C(=O)N([C@H](C)CO)C[C@@H]2C)cc1 | > 79 µM (inactive)
COc1cc(-c2nnc(-c3cc(OC)c(OC)c(OC)c3)o2)cc(OC)c1OC | > 79 µM (inactive)
CC(=O)Oc1ccc(C(=O)OCC(=O)c2c(N)n(C)c(=O)n(C)c2=O)cc1OC(C)=O | 31.8 µM (inactive)
Oc1c(Cl)cc(Cl)cc1C=Nc1ccc(N2CCOCC2)cc1 | 31.5 µM (inactive)
OC1CCN(c2c3c(nc4cc(-c5cccc(F)c5)nn24)CCCC3)CC1 | 23.6 µM
COc1ccc(C(=O)NNC(=O)CCc2nc3ccccc3c(=O)[nH]2)cc1 | > 79 µM (inactive)
Cn1c2ccccc2c2cc(/C=N/NC(=O)c3cc(O)ccc3O)ccc21 | > 79 µM (inactive)
CCn1c(O)c(/C=N/N=C/c2ccccc2)c2ccc(C3=NNC(=O)CC3)cc21 | > 79 µM (inactive)
COC(=O)c1cc(OC)c(OC)cc1NC(=O)c1ccc(OC)c(OC)c1 | > 79 µM (inactive)
Cc1ccc(N(CCC#N)C(=O)CSc2nc3ccccc3c(=O)[nH]2)cc1 | > 79 µM (inactive)
O=C(NCCc1ccccc1Cl)c1ccc2nc3ccccc3c(=O)n2c1 | 16.8 µM
CCOc1ccc(C(=O)Nc2cccc(-c3nc4cccnc4o3)c2)cc1Cl | 32.2 µM (inactive)
CCn1c(SCC(=O)N2CCN(c3ccccc3)CC2)nc2c(c1=O)SC(C)C2 (stereo not given) | > 79 µM (inactive)
Nc1ncc(-c2ccccc2)n1CC1CCCO1 (stereo not given) | > 79 µM (inactive)
COc1ccc(NCc2cc3ccccc3[nH]c2=O)cc1 | > 79 µM (inactive)
NS(=O)(=O)c1ccc(N=Cc2c(O)n(-c3nccs3)c(=O)c3ccccc23)cc1 | > 79 µM (inactive)
COc1ccc(-c2cc(C(F)F)n3ncc(C(=O)Nc4ccc(C(=O)N5CCOCC5)cc4)c3n2)cc1 | > 79 µM (inactive)
COc1ccc2[nH]c(=O)c(-c3nnn(-c4ccc(F)cc4)n3)cc2c1 | > 79 µM (inactive)
C[C@@H]1CN([C@@H](C)CO)C(=O)c2cc(NC(=O)Nc3ccccc3)ccc2O[C@H]1CN(C)C(=O)Nc1cccc2ccccc12 | 15.8 µM

Compound | IC50
COc1ccc(C(CC(=O)N2CCN(c3ccccc3)CC2)c2c(OC)cc(OC)c3ccc(=O)oc23)cc1 (stereo not given) | 23.2 µM
COc1cccc(CN(C)C(=O)C(Cc2ccccc2)NC(=O)c2ccccc2)c1OC (stereo not given) | 20.8 µM
CC(C)(C)c1nn(-c2ccccc2)c2[nH]c(=O)c(CNCc3ccco3)cc12 | 40.3 µM (inactive)
CC12CCC3C(CCC4CC(O)CCC43C)C1CC(O)C2 (stereo not given) | > 79 µM (inactive)
COc1ccc(N/C=C(\C#N)c2nc3ccccc3n2C)c(OC)c1 | > 79 µM (inactive)
COc1ccc(-c2cc3nc(-c4ccccc4)cc(N4CCN(C(C)=O)CC4)n3n2)cc1 | 12 µM
C[C@@H](C(=O)Nc1nc(-c2ccccn2)cs1)N1C(=O)C2CCCCC2C1=O (stereo not given in full) | > 79 µM (inactive)
CC(C)N1C(=O)S/C(=C/c2ccc3c(c2)n(C)c(=O)n3C)C1=O | > 79 µM (inactive)
Cc1cc(C)c(C)c(S(=O)(=O)N2CCC(C(=O)NNC(=O)c3ccccc3O)CC2)c1C | > 79 µM (inactive)
COc1cc2c(C#CCCCO)c(-c3ccsc3)oc(=O)c2cc1OC | > 79 µM (inactive)
COc1ccc(C2CC(c3cccs3)n3nc(N)nc3N2)cc1 (stereo not given) | > 79 µM (inactive)
S=C(Nc1ccc(N2CCOCC2)cc1)Nc1ccc2nc(-c3ccco3)c(-c3ccco3)nc2c1 | > 79 µM (inactive)
CCn1c(/C=N/NC(=O)c2ccc(OC)cc2)nc2ccccc21 | > 79 µM (inactive)
COc1ccc(-c2csc(NC(=O)CCn3cnc4ccccc4c3=O)n2)cc1OC | > 79 µM (inactive)
CC(=O)Nc1cccc(-c2cc(NC(C)=O)c3ncc(-c4ccccc4)n3c2)c1 | 12.8 µM
Cc1[nH]c2ccccc2c1/C=N/NC(=O)c1cccs1 | 40.2 µM (inactive)
CC(C)(C)NC(=O)c1cccc(NC(=O)c2ccc(NC(=O)c3ccco3)cc2)c1 | 15.4 µM
COc1nc(N/N=C/c2cc3c(cc2Br)OCO3)nc(N2CCOCC2)n1 | 15.7 µM
N#Cc1c(-c2ccco2)cc(-c2ccccn2)nc1N | 22.7 µM
COc1ccc(C(=O)Nc2cccc(/C(C)=N/NC(=O)c3ccc([N+](=O)[O-])c(C)c3)c2)cc1OC | > 79 µM (inactive)
Cc1nc(OCc2ccccc2)c2ccccc2n1 | 9.43 µM
Cc1ccc2cc(C#N)c(N3CCN(C(=O)c4cccs4)CC3)nc2c1 | > 79 µM (inactive)
COCCCn1c(C)nc2c(c1=O)c1nc3ccccc3nc1n2CCc1ccccc1 | > 79 µM (inactive)
Cc1cccc(NC(=O)c2nc[nH]c2C(=O)NCCCNC(=O)c2[nH]cnc2C(=O)Nc2cccc(C)c2)c1 | 31.6 µM (inactive)

Compound | IC50
CCc1nc2ccc(C(=O)Nc3cccc(OCC(=O)N(C)C)c3)cn2c1N(C)Cc1cc2ccccc2s1 | 11.8 µM
CCN(CC)c1ccc(C(=O)NNC(=O)CCc2nc3ccccc3c(=O)[nH]2)cc1 | > 79 µM (inactive)
Cc1ccc(NC(=O)CCCc2nc3ccccc3c(=O)[nH]2)c(Cl)c1 | 40 µM (inactive)
O=C(NNC(=O)C(c1ccccc1)c1ccccc1)c1ccccn1 | > 79 µM (inactive)
O=C(CNC(=O)c1nc[nH]c1C(=O)NCc1ccccc1)OCc1ccccc1 | > 79 µM (inactive)
C/C(=N\Nc1nnc2c3ccccc3n(C)c2n1)c1ccc(C)o1 | > 79 µM (inactive)
COCCn1cnc2c(c1=O)c1nc3ccccc3nc1n2/N=C/c1cccc(OC)c1 | 38 µM (inactive)
Cc1ccc2nsnc2c1S(=O)(=O)N(Cc1ccco1)Cc1cc2cccc(C)c2[nH]c1=O | 25.8 µM
O=C(CCc1nc2ccccc2c(=O)[nH]1)N1CCN(S(=O)(=O)c2ccc(F)cc2)CC1 | > 79 µM (inactive)
CCCCCCn1cnc2c(c1=O)c1nc3ccccc3nc1n2/N=C/c1ccco1 | > 79 µM (inactive)
Cc1ccc(-c2nnc3ccc(SCC(=O)N4CCCc5ccccc54)nn23)cc1 | > 79 µM (inactive)
COc1ccc2cc3cc(C(=O)Nc4cc(OC)c(OC)c(OC)c4)oc3nc2c1 | 27.5 µM
COc1ccc(C=NNc2nc3c([nH]2)c(=O)n(C)c(=O)n3C)cc1 | > 79 µM (inactive)
COc1ccc(/C=N\NC(=O)c2c(C)nc3ccc(Br)cn23)cc1 | > 79 µM (inactive)
O=C(Cn1[nH]c(=O)c2ccccc2c1=O)OCC(=O)N1CCc2ccccc2C1 | > 79 µM (inactive)
O=C(Cn1[nH]c(=O)c2ccccc2c1=O)OCC(=O)N1CCCc2ccccc21 | 51.3 µM (inactive)
O=C(CN1CCN(c2ccccn2)CC1)Nc1ccc([N+](=O)[O-])cc1C(=O)Nc1ccccc1F | 11.3 µM
O=C(CN1C(=O)C2CC=CCC2C1=O)Nc1nc(-c2ccc(F)cc2)cs1 (stereo not given) | 10.8 µM
COc1cc(/C=N/NC(=O)c2cccnc2)ccc1OS(=O)(=O)c1cc(C)ccc1C | > 79 µM (inactive)
COc1ccc(CCNC(=O)C(=O)NCC2CCCN2S(=O)(=O)c2cc(C)ccc2C)cc1 (stereo not given) | > 79 µM (inactive)
Cc1nc(N2CCN(c3ccccn3)CC2)c2c(C)c(C(=O)Nc3ccccc3F)sc2n1 | 10.5 µM
O=C(NO)c1ccc(C(=O)N(C2CCCCC2)C2CCCCC2)cc1 | > 79 µM (inactive)
COc1cc(/C=C/C(=O)CC(=O)/C=C/c2ccc(O)c(OC)c2)ccc1O | > 79 µM (inactive)

Source: PubChem BioAssay AID588780 (Sanford-Burnham Center for Chemical Genomics, 2011)
